US7109380B2, “Cyclopentenedione antifungal compounds and methods for their use” (The University of Mississippi, priority 2004, dated 2006)
Read-outs that look alike come from different tables or passages of the source.

How the values were obtained:
Assay in all cases: Lethality bioassay on germinating conidia
Format in all cases: cell-based
[1] = system: Germinating conidia of Aspergillus flavus; conditions: for viability at 5 µM / viability at 10 µM / viability at 15 µM / viability at 20 µM / viability at 25 µM / viability at 30 µM: read-out: Percent of Control Mean (viable colonies, Aspergillus flavus)
Experimental: (§1) Pathogen production. Stock slant isolates of Aspergillus flavus, Fusarium oxysporum, and Fusarium moniliforme were grown on potato dextrose agar (Difco, Detroit, Mich.) slants for 7 days at room temperature (22° C.).
(§2) Inoculum preparation. Prior to a bioassay, 4 ml of 1% potato dextrose broth (PDB, Difco, Detroit, Mich.), pH 4.86, was added to a stock culture slant. The conidia were suspended by gentle agitation using the pipette tip and the population determined with the use of a hemocytometer. The conidia were then diluted to a 10^4 conidia/ml concentration and incubated for 8 hrs at 22° C. to obtain germinating conidia that were used in the bioassays.
(§3) Experimental design of lethality bioassays to determine activity of coruscanone A. Coruscanone A was diluted in 100% methanol with a further dilution in PDB to achieve a stock concentration of 0.032 μg/μl. Test mixtures of germinating conidia and compound 67 were made in sterile 500 μl Eppendorf (Brinkman, Westbury, N.Y.) microcentrifuge tubes. Final test concentrations of compound 67 were 0, 5, 10, 15, 20, 25, and 30 μM in a final volume of 250 μl (0.0635 μg/μl=1.0 μM/250 μl). After an incubation of 30 min, 16 hours and 24 hours at 22° C., aliquots (50 μl) of the each sample were spread on each of 4 PDA plates. The plates were incubated at 22° C. for 2 days and the developed, viable colonies were enumerated. Separate bioassays were also set up at the same time as that with the 30 min incubation period but incubated at 22° C. for 16 and 24 hours, respectively. These samples were spread as previously described and the developing, viable colonies enumerated. Bioassays were performed on three separate occasions per fungus (n=12). Statistical analysis was performed using SigmaPlot 9.0 (p<0.05).

[2] = system: Germinating Conidia of Fusarium moniliforme; conditions: for viability at 5 µM / viability at 10 µM / viability at 15 µM / viability at 20 µM / viability at 25 µM / viability at 30 µM: Fusarium verticillioides, read-out: Percent of Control Mean (viable colonies, Fusarium moniliforme)
Experimental: as §1, §2, §3

[3] = system: Germinating Conidia of Fusarium oxysporum; conditions: for viability at 5 µM / viability at 10 µM / viability at 15 µM / viability at 20 µM / viability at 25 µM / viability at 30 µM: read-out: Percent of Control Mean (viable colonies, Fusarium oxysporum)
Experimental: as §1, §2, §3

COC(/C=C/c1ccccc1)=C1\C(=O)C=C(C)C1=O [Compound 1, coruscanone A]
viability at 5 µM ([1]; 0.5 h): 109%
viability at 10 µM ([1]; 0.5 h): 86.6%
viability at 15 µM ([1]; 0.5 h): 98%
viability at 20 µM ([1]; 0.5 h): 78.9%
viability at 25 µM ([1]; 0.5 h): 70%
viability at 30 µM ([1]; 0.5 h): 66.5%
viability at 5 µM ([1]; 16 h): 75.2%
viability at 10 µM ([1]; 16 h): 76.4%
viability at 15 µM ([1]; 16 h): 45.4%
viability at 20 µM ([1]; 16 h): 39.1%
viability at 25 µM ([1]; 16 h): 30.5%
viability at 30 µM ([1]; 16 h): 19.5%
viability at 5 µM ([1]; 24 h): 113%
viability at 10 µM ([1]; 24 h): 71.8%
viability at 15 µM ([1]; 24 h): 64.8%
viability at 20 µM ([1]; 24 h): 55.7%
viability at 25 µM ([1]; 24 h): 40.6%
viability at 30 µM ([1]; 24 h): 28.7%
Lethality to germinating conidia (in words) ([1]; after 24 hours of incubation, any tested concentration): no longer significantly lethal
Lethality to germinating conidia (in words) ([1]; incubated 30 min): not lethal
Concentration at and above which significant and increasing lethality was observed ([2]; Fusarium moniliforme, 16 and 24 hours of incubation): ≥ 5 µM
Lethality to germinating conidia (in words) ([2]; Fusarium moniliforme, 30 min incubation): not significantly lethal
viability at 5 µM ([2]; 0.5 h): 106%
viability at 10 µM ([2]; 0.5 h): 85.4%
viability at 15 µM ([2]; 0.5 h): 114%
viability at 20 µM ([2]; 0.5 h): 102%
viability at 25 µM ([2]; 0.5 h): 99.7%
viability at 30 µM ([2]; 0.5 h): 90.8%
viability at 5 µM ([2]; 16 h): 12.5%
viability at 10 µM ([2]; 16 h): 6.1%
viability at 15 µM ([2]; 16 h): 5.3%
viability at 20 µM ([2]; 16 h): 2.7%
viability at 25 µM ([2]; 16 h): 2.1%
viability at 30 µM ([2]; 16 h): 1.6%
viability at 5 µM ([2]; 24 h): 38.6%
viability at 10 µM ([2]; 24 h): 7.4%
viability at 15 µM ([2]; 24 h): 4.2%
viability at 20 µM ([2]; 24 h): 3.9%
viability at 25 µM ([2]; 24 h): 2.2%
viability at 30 µM ([2]; 24 h): 1.3%
viability at 5 µM ([3]; 0.5 h): 110%
viability at 10 µM ([3]; 0.5 h): 102%
viability at 15 µM ([3]; 0.5 h): 110%
viability at 20 µM ([3]; 0.5 h): 106%
viability at 25 µM ([3]; 0.5 h): 116%
viability at 30 µM ([3]; 0.5 h): 113%
viability at 5 µM ([3]; 16 h): 104%
viability at 10 µM ([3]; 16 h): 79.7%
viability at 15 µM ([3]; 16 h): 41.2%
viability at 20 µM ([3]; 16 h): 30.8%
viability at 25 µM ([3]; 16 h): 14.5%
viability at 30 µM ([3]; 16 h): 7.7%
Concentration at which significant and increasing lethality begins ([3]; 16 hour incubation): ≥ 15 µM
viability at 5 µM ([3]; 24 h): 80.2%
viability at 10 µM ([3]; 24 h): 56.7%
viability at 15 µM ([3]; 24 h): 35.2%
viability at 20 µM ([3]; 24 h): 19.4%
viability at 25 µM ([3]; 24 h): 10.9%
viability at 30 µM ([3]; 24 h): 4.3%
Concentration at and above which significantly and increasingly lethal ([3]; 24 hour incubation): ≥ 10 µM
Lethality to germinating conidia (in words) ([3]; any of the tested concentrations (time not given)): not lethal
